Data published in ChEMBL document CHEMBL5634109, “Synthesis and mechanism of action of new purine derivatives against triple negative breast cancer” (Eur J Med Chem, 2023).
Calls of active or inactive are those of the source. No cut-off for these calls is given here.

Columns and labels:
[1] = biological target: T1, Cyclin-dependent kinase 7 (Homo sapiens, UniProt P50613); test: Inhibition of CDK7 (unknown origin) at 1 uM relative to control
[2] = biological target: T1, Cyclin-dependent kinase 7; test: Inhibition of CDK7 (unknown origin) at 10 uM relative to control
[3] = biological target: T2, Dual specificity protein kinase CLK2 (Homo sapiens, UniProt P49760); test: Inhibition of CLK2 (unknown origin) at 1 uM relative to control
Target sequence in this assay (P49760 whole entry, looked up): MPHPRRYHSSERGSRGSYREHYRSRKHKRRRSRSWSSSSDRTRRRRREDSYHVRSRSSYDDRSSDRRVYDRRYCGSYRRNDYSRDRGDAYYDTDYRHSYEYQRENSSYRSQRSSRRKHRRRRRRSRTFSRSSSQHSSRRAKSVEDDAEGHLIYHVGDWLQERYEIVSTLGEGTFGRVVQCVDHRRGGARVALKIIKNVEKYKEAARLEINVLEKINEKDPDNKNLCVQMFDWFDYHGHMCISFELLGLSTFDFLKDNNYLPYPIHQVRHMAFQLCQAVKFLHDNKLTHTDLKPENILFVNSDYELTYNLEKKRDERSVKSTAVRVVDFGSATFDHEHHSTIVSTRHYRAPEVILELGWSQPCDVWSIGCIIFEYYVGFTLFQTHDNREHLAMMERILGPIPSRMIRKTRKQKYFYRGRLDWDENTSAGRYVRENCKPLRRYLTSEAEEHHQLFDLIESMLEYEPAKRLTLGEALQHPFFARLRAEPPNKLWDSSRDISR

[4] = biological target: T2, Dual specificity protein kinase CLK2; test: Inhibition of CLK2 (unknown origin) at 10 uM relative to control
Target sequence in this assay (P49760 whole entry, looked up): as above

[5] = biological target: T3, Dual specificity protein kinase CLK4 (Homo sapiens, UniProt Q9HAZ1); test: Inhibition of CLK4 (unknown origin) at 1 uM relative to control
Target sequence in this assay (Q9HAZ1 whole entry, looked up): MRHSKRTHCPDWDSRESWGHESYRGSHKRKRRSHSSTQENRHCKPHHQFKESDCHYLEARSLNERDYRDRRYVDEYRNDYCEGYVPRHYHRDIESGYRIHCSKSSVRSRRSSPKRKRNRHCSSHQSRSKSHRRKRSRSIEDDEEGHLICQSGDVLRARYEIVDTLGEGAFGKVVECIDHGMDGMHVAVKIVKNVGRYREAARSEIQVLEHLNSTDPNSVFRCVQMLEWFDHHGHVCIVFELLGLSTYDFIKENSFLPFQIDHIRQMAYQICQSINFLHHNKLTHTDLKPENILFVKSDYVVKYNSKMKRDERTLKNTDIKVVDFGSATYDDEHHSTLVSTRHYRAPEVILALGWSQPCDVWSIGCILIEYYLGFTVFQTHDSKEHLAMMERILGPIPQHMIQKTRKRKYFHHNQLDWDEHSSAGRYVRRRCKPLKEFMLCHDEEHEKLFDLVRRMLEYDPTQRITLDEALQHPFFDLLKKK

[6] = biological target: T3, Dual specificity protein kinase CLK4; test: Inhibition of CLK4 (unknown origin) at 10 uM relative to control
Target sequence in this assay (Q9HAZ1 whole entry, looked up): as above

[7] = biological target: T4, Cyclin-dependent kinase 2/cyclin E1 (Homo sapiens) (UniProt P24864+P24941); test: Inhibition of CDK2/Cyclin E (unknown origin) at 1 uM relative to control; assay type: protein-complex assay
[8] = biological target: T4, Cyclin-dependent kinase 2/cyclin E1 (Homo sapiens); test: Inhibition of CDK2/Cyclin E (unknown origin) at 10 uM relative to control; assay type: protein-complex assay
[9] = biological target: T5, Cyclin-dependent kinase 5/CDK5 activator 1 (Homo sapiens) (UniProt Q00535+Q15078); test: Inhibition of CDK5/P25 (unknown origin) at 1 uM relative to control; assay type: protein-complex assay
T5 sequence (Q00535 whole entry): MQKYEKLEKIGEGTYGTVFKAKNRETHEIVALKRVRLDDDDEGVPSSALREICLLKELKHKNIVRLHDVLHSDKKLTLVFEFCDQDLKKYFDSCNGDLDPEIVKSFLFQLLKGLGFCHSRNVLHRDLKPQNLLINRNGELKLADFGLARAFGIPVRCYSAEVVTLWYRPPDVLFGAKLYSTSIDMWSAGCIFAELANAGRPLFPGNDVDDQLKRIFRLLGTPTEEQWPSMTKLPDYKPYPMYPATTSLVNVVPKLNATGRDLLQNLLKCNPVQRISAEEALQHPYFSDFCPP
T5 sequence (Q15078 99-307 partner limits assumed): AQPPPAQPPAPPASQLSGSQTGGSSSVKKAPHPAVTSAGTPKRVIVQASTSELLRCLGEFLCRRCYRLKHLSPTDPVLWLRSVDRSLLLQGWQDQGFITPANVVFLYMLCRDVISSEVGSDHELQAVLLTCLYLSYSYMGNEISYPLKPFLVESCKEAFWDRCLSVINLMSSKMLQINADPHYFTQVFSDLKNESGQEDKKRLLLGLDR

[10] = biological target: T5, Cyclin-dependent kinase 5/CDK5 activator 1 (Homo sapiens); test: Inhibition of CDK5/P25 (unknown origin) at 10 uM relative to control; assay type: protein-complex assay
[11] = biological target: Cyclin-dependent kinase 9 (Homo sapiens) (UniProt P50750); test: Inhibition of CDK9 (unknown origin) at 1 uM relative to control
Chain of Cyclin-dependent kinase 9 (Homo sapiens) (P50750 whole entry): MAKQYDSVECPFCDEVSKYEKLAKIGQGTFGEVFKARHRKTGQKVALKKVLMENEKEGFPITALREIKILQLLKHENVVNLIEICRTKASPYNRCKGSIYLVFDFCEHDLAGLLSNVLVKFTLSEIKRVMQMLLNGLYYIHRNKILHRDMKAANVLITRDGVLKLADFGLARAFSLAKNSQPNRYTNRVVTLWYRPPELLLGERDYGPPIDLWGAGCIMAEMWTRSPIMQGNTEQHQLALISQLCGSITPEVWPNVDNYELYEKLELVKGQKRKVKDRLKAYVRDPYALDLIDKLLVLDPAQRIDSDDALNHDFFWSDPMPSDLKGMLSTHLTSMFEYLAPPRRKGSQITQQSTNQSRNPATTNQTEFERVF

[12] = biological target: Cyclin-dependent kinase 9 (Homo sapiens) (UniProt P50750); test: Inhibition of CDK9 (unknown origin) at 10 uM relative to control
[13] = biological target: T1, Cyclin-dependent kinase 7; test: Inhibition of CDK7 (unknown origin)
[14] = biological target: T2, Dual specificity protein kinase CLK2; test: Inhibition of CLK2 (unknown origin)
Target sequence in this assay (P49760 whole entry): as the sequence (P49760 whole entry, looked up) above

[15] = biological target: T3, Dual specificity protein kinase CLK4; test: Inhibition of CLK4 (unknown origin)
Target sequence in this assay (Q9HAZ1 whole entry): as the sequence (Q9HAZ1 whole entry, looked up) above

[16] = biological target: Dual specificity protein kinase CLK1 (Homo sapiens, UniProt P49759); test: Inhibition of CLK1 (unknown origin)
Chain of Dual specificity protein kinase CLK1 (P49759 whole entry, canonical isoform): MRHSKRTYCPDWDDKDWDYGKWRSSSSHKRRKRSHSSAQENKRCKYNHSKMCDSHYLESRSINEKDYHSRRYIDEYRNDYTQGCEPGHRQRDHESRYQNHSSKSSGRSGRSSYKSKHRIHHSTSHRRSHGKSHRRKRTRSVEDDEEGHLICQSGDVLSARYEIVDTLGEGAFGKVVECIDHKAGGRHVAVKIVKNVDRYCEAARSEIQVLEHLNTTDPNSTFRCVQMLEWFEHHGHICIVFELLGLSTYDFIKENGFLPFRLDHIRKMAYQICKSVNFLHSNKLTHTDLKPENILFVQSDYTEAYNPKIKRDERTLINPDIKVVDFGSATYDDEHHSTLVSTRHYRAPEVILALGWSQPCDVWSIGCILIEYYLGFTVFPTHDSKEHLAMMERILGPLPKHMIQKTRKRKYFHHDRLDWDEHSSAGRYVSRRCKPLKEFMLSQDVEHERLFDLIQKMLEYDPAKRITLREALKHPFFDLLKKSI

[17] = biological target: Casein kinase I isoform epsilon (Homo sapiens, UniProt P49674); test: Inhibition of CK1epsilon (unknown origin)
Chain of Casein kinase I isoform epsilon (P49674 whole entry, canonical isoform): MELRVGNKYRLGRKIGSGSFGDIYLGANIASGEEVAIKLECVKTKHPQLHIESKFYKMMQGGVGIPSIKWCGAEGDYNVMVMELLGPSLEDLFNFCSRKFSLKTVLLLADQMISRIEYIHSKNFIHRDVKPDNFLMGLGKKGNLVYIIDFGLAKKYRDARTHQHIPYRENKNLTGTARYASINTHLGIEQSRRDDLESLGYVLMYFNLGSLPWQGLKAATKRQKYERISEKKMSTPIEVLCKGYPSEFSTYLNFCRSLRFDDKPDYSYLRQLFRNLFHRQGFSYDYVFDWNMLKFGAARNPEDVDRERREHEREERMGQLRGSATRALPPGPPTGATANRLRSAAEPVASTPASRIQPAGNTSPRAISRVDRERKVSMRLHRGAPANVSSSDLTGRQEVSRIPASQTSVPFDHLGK

[18] = biological target: Dual specificity tyrosine-phosphorylation-regulated kinase 1A (Homo sapiens, UniProt Q13627); test: Inhibition of DYRK1A (unknown origin)
HepG2 = test: Antiproliferative activity against human HepG2 cells assessed as reduction in cell viability measured for 48 hrs by MTT assay; assay type: functional, cell-based; settings: HepG2, 48 h
HCT-116 = test: Antiproliferative activity against human HCT-116 cells assessed as reduction in cell viability measured for 48 hrs by MTT assay; assay type: functional, cell-based; settings: HCT-116, 48 h
HT-29 = test: Antiproliferative activity against human HT-29 cells assessed as reduction in cell viability measured for 48 hrs by MTT assay; assay type: functional, cell-based; settings: HT-29, 48 h
K562 = test: Antiproliferative activity against human K562 cells assessed as reduction in cell viability measured for 48 hrs by MTT assay; assay type: functional, cell-based; settings: K562, 48 h
MCF7 = test: Antiproliferative activity against human MCF7 cells assessed as reduction in cell viability measured for 48 hrs by MTT assay; assay type: functional, cell-based; settings: MCF7, 48 h
MGC-803 = test: Antiproliferative activity against human MGC-803 cells assessed as reduction in cell viability measured for 48 hrs by MTT assay; assay type: functional, cell-based; settings: MGC-803, 48 h
A549 = test: Antiproliferative activity against human A549 cells assessed as reduction in cell viability measured for 48 hrs by MTT assay; assay type: functional, cell-based; settings: A549, 48 h
NCI-H1299 = test: Antiproliferative activity against human NCI-H1299 cells assessed as reduction in cell viability measured for 48 hrs by MTT assay; assay type: functional, cell-based; settings: NCI-H1299, 48 h
MDA-MB-231 [19] = test: Antiproliferative activity against human MDA-MB-231 cells assessed as reduction in cell viability measured for 48 hrs by MTT assay; assay type: functional, cell-based; settings: MDA-MB-231, 48 h
MDA-MB-468 = test: Antiproliferative activity against human MDA-MB-468 cells assessed as reduction in cell viability measured for 48 hrs by MTT assay; assay type: functional, cell-based; settings: MDA-MB-468, 48 h
[20] = Antiproliferative activity against human HUVEC cells assessed as reduction in cell viability measured for 48 hrs by MTT assay; assay type: toxicity, cell-based
[21] = Antiproliferative activity against human HEK293 cells assessed as reduction in cell viability measured for 48 hrs by MTT assay; assay type: toxicity, cell-based
PC-3 = test: Antiproliferative activity against human PC-3 cells assessed as reduction in cell viability measured for 48 hrs by MTT assay; assay type: functional, cell-based; settings: PC-3, 48 h
MDA-MB-231 [22] = test: Induction of ROS generation in human MDA-MB-231 cells assessed as increase in intracellular ROS level at 40 uM incubated for 48 hrs by DCFH-DA staining based fluorescence microscopic analysis (Rvb= 24.7%); assay type: functional
Cell membrane = test: Induction of mitochondrial membrane potential loss in human MDA-MB-231 cells assessed as increase in fluorescence intensity at 40 uM incubated for 48 hrs by TMRM dye based flow cytometry analysis (reference value: 97.5%)
MDA-MB-231 [23] = test: Inhibition of cell migration human MDA-MB-231 cells assessed as migration distance at 25 uM incubated for 24 hrs by wound healing assay (reference value: 642.72 micrometer); assay type: functional
MDA-MB-231 [24] = test: Inhibition of cell migration human MDA-MB-231 cells assessed as migration distance at 25 uM incubated for 48 hrs by wound healing assay (reference value: 642.72 micrometer); assay type: functional
MDA-MB-231 [25] = test: Inhibition of cell migration human MDA-MB-231 cells at 0.01 to 0.4 uM incubated for 20 hrs by DAPI staining based analysis; assay type: functional; settings: dose 0.01-0.4 µM
HUVEC = test: Antiangiogenesis activity in HUVEC cells at 125 nM incubated for 12 hrs by microscopic analysis; assay type: functional, cell-based; settings: Homo sapiens

T1 sequence (P50613 whole entry): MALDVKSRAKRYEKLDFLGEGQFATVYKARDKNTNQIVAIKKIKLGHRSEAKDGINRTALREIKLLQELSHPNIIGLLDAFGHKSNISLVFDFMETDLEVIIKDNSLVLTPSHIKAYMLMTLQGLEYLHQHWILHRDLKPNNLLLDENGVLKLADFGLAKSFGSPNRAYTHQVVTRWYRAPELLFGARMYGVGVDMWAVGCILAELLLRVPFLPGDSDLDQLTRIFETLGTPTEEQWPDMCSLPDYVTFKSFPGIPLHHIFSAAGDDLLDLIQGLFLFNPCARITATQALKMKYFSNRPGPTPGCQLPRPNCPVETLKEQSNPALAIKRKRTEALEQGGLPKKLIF

SMILES | IC50 [13] | IC50 [14] | IC50 [15] | IC50 [16] | IC50 [17] | IC50 [18] | IC50 (HepG2) | IC50 (HCT-116) | IC50 (HT-29) | IC50 (K562) | IC50 (MCF7) | IC50 (MGC-803) | IC50 (A549) | IC50 (NCI-H1299) | IC50 (PC-3) | further results
CC(C)n1cnc2c(NCc3ccccc3)nc(N3CCC(C4CCN(CCO)CC4)CC3)nc21 | 0.143 µM | 0.068 µM | 0.158 µM | 0.412 µM | 0.771 µM | 0.877 µM | 1.82 µM | 2.23 µM | 3.17 µM | – | – | – | – | – | – | inhibition [1]: 88%; inhibition [2]: 96%; inhibition [3]: 99%; inhibition [4]: 99%; inhibition [5]: 92%; inhibition [6]: 97%; inhibition [7]: 2%; inhibition [8]: 49%; inhibition [9]: 4%; inhibition [10]: 42%; inhibition [11]: 8%; inhibition [12]: 40%
CC(C)n1cnc2c(NCc3cc(F)cnc3Cl)nc(N3CCC(C4CCN(CCO)CC4)CC3)nc21 | – | – | – | – | – | – | 6.91 µM | 0.35 µM | 2.39 µM | 0.29 µM | 6.03 µM | 6.78 µM | 0.45 µM | 2.75 µM | – | IC50 (MDA-MB-231 [19]): 0.4 µM; IC50 (MDA-MB-468): 4.07 µM; IC50 at 48 h [20]: 1.55 µM; IC50 at 48 h [21]: 0.46 µM
CC(C)n1cnc2c(NCc3ccc(F)c(F)c3)nc(N3CCC(C4CCN(CCO)CC4)CC3)nc21 | 0.597 µM | 0.08 µM | 0.31 µM | 0.949 µM | 0.415 µM | 0.79 µM | 3.05 µM | 2.8 µM | 3.47 µM | 0.44 µM | 3.05 µM | 5.07 µM | 2.49 µM | 19.6 µM | 3.95 µM | –
CC(C)n1cnc2c(NCc3cccnc3Cl)nc(N3CCC(C4CCN(CCO)CC4)CC3)nc21 | – | – | – | – | – | – | > 100 µM | 54.5 µM | > 100 µM | > 100 µM | > 100 µM | > 100 µM | > 100 µM | > 100 µM | – | –
CC[C@@]1(O)C(=O)OCc2c1cc1n(c2=O)Cc2cc3ccccc3nc2-1 [CAMPTOTHECIN] | – | – | – | – | – | – | – | 0.21 µM | 0.19 µM | 0.08 µM | 6.39 µM | > 100 µM | 5.5 µM | > 100 µM | > 100 µM | IC50 (MDA-MB-231 [19]): > 100 µM; IC50 (MDA-MB-468): > 100 µM; IC50 at 48 h [20]: 0.04 µM; IC50 at 48 h [21]: 0.81 µM
CC[C@H](CO)Nc1nc(NCc2ccccc2)c2ncn(C(C)C)c2n1 [SELICICLIB] | – | – | – | – | – | – | > 100 µM | 17.3 µM | > 100 µM | > 100 µM | > 100 µM | > 100 µM | > 100 µM | 83 µM | > 100 µM | Activity (MDA-MB-231 [22]): 21.8%; Activity (Cell membrane): 87.5%; Activity (MDA-MB-231 [23]): 348.27 um; Activity (MDA-MB-231 [24]): 453.91 um; inhibition (MDA-MB-231 [25]): Active; Activity (HUVEC): Active
CC(C)n1cnc2c(NCc3ccccn3)nc(N3CCC(C4CCN(CCO)CC4)CC3)nc21 | 0.043 µM | 0.02 µM | 0.047 µM | 0.173 µM | 0.167 µM | 0.208 µM | 76.1 µM | 22.8 µM | 53.9 µM | 28.7 µM | 44.5 µM | > 100 µM | 38.4 µM | 53.4 µM | – | –
CC(C)n1cnc2c(NCc3ccncc3)nc(N3CCC(C4CCN(CCO)CC4)CC3)nc21 | – | – | – | – | – | – | 58.8 µM | 24.4 µM | 35.9 µM | 31 µM | 10.1 µM | > 100 µM | 34.7 µM | 38.7 µM | – | –
OCCN1CCC(C2CCN(c3nc(NCc4cc(F)cc(F)c4)c4ncn(C5CCCC5)c4n3)CC2)CC1 | – | – | – | – | – | – | 4.43 µM | 41.9 µM | 3.41 µM | 2.54 µM | 2.93 µM | 5.7 µM | 2.33 µM | 6.49 µM | 4.36 µM | –
OCCN1CCC(C2CCN(c3nc(NCc4ccc(Cl)c(F)c4)c4ncn(C5CCCC5)c4n3)CC2)CC1 | 2.04 µM | 0.058 µM | 0.126 µM | 0.78 µM | 0.193 µM | 0.445 µM | 1.75 µM | 2.95 µM | 4.21 µM | 2.63 µM | 2.83 µM | 19.9 µM | 3.54 µM | 4.77 µM | 7.2 µM | –
